Assay results reported in publication PMC11108826 (Synthetic and Systems Biotechnology, 2024).

Molecular target: T1, ORF-L16 (Saccharopolyspora spinosa, UniProt Q9ALP2)
T1 sequence (Q9ALP2 1-278): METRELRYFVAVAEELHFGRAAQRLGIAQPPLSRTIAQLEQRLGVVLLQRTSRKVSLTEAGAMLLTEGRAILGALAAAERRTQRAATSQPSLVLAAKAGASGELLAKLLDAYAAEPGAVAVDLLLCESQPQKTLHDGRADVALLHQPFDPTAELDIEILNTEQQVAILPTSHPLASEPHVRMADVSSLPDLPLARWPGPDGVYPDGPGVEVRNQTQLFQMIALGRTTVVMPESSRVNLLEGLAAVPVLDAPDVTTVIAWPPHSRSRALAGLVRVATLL
Test: isothermal titration calorimetry
Type: binding

For `CC[C@H]1CCC[C@H](O[C@H]2CC[C@H](N(C)C)[C@@H](C)O2)[C@@H](C)C(=O)C2=C[C@@H]3[C@@H](C=C[C@@H]4C[C@@H](O[C@@H]5O[C@@H](C)[C@H](OC)[C@@H](OC)[C@H]5OC)C[C@@H]34)[C@@H]2CC(=O)O1` [spinosyn A], the Kd was 2360 ± 40 nM.
